Data on seven molecules can be found in US20100168112A1, “2-Substituted and 4-substituted aryl nitrone compounds” (RENOVIS, INC., priority 2004, published 2010).

Data set [1] is described as follows: DPPH free radical-scavenging/antioxidant assay. It is filed as biochemical. Particulars: 50 μM DPPH in 80% methanol; 24 h time point; read-out: EC50 (concentration at which a compound reduces by 50% the peak absorbance of DPPH at 520 nm). The procedure, abridged: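 Compounds diluted 100-fold from DMSO stocks into 50 μM DPPH in 80% methanol; absorbance at 520 nm followed kinetically to steady state, with the 24 h reading used. EC50 interpolated from OD520 versus concentration; Trolox, BHA, PBN and S-PBN as positive controls, DMSO as vehicle.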
Background: DPPH is a stable violet radical that fades when it is reduced.

Data set [2] can be described thus: Plasma protein binding (equilibrium dialysis), human plasma. Particulars: 1 μg/mL in plasma, dialysis vs phosphate buffer pH 7.4 overnight at 37° C., read-out: Plasma Protein Binding % Bound Human (converted). It is filed as in vitro ADME. The method, then:
Nitrone compounds of this invention were individually dissolved in DMSO to make a stock solution of 1 mg/mL. The compound was spiked into plasma to achieve a final concentration of 1 μg/mL. Spiked plasma and phosphate buffer (0.1M, pH 7.4), 200 μl each, were added to the opposite sides of the membrane in a 96-well equilibrium dialyzer. The dialyzer plate was then covered and equilibrated overnight at 37° C. on an orbital shaker. Aliquots were taken from the plasma and the buffer compartments and prepared by adding blank plasma to samples from the buffer compartments and drug-free phosphate buffer to samples from the plasma compartments to eliminate the matrix effects. The samples were extracted using protein precipitation procedure by adding CH3CN. The samples were analyzed using a LC/MS/MS method. The percentage of free and bound nitrone compound were calculated according to the following formula:
%Free=[Free Drug/Total Drug]*100=[(Peak Area)buffer/(Peak Area)serum]*100%Bound=100%Free
In general terms: In equilibrium dialysis free small molecules cross a membrane that holds back macromolecules.

The nature of data set [3]: Brain penetration after single oral dose in rats. Format: in vivo. The following applies: Sprague-Dawley, rat, single oral dose (compound 26 5 mg/kg, 62 15 mg/kg, 20, 63 and 66 50 mg/kg), at or near Tmax. The method, then: Nitrone compounds of this invention were formulated individually as suspensions and administered as a single dose to Sprague-Dawley rats via oral gavage (compound 26 at 5 mg/kg, compound 62 at 15 mg/kg, compounds 20, 63 and 66 at 50 mg/kg). Plasma samples were obtained at or near Tmax projected at the given dose for each compound and the animals were euthanized using carbon dioxide. Immediately following euthanization, cerebrospinal fluid (CSF) was obtained by cisternal puncture of the atlanto-occipital membrane and drawn from the magnum cisternum. The brain was first perfused intracardially with ˜150 mL of ice-cold 0.1 M Phosphate Buffered Saline (PBS) at pH7.4. Following the removal of the dura, the brain was weighed. The brain was then dissected into smaller pieces and rinsed twice with ˜10 mL PBS. The brain, CSF, and plasma samples were frozen on dry ice and stored at −80° C. before analysis. CSF and plasma samples were subjected to a protein precipitation method prior to LC/MS/MS analysis. Blank rat plasma and CSF were used accordingly for diluting the samples when needed. Bioanalytical standard curves were prepared by spiking a stock solution of the nitrone compound to blank rat plasma or CSF to achieve a quantitation curve range and analyzed the standards in the same manner as the samples. Brain samples underwent homogenization in 2 mL water and liquid-liquid extraction with ethyl acetate three times. The combined organic phase for each sample was evaporated under a stream of nitrogen at 40° C. and the residues were reconstituted with an appropriate amount of mobile phase B (referring to LC/MS/MS method section). A bioanalytical standard curve for brain analysis was prepared by spiking 100 μL of stock solution directly into sliced blank rat brain purchased from Pelfreez. The spiked brains then underwent the same processing procedures for the dosed samples.
The reconstituted samples were vortexed and incubated to fully dissolve the analytes. The samples were centrifuged, and then further diluted with Mobile phase B if necessary before LC/MS/MS analysis. Nitrone compound levels in the brain were calculated based on the measured concentration, the volume of reconstitution and brain weight to yield a unit of ng (of compound) per g of brain. To calculate the brain/plasma ratio (w/v), it was assumed that 1 g of brain tissue takes approximately 1 mL of volume.

The nature of data set [4]: Microsomal stability in human liver microsomes. It is filed as in vitro ADME. Particulars: NADPH, 37° C. In outline: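 Compound (~500 ng/ml) incubated at 37°C for up to 30 min with 0.5 mg/ml microsomal protein and 1 mM NADPH in 0.1 M PBS pH7.4, after 3–5 min preincubation without NADPH. Sprague-Dawley rat or human microsomes; acetonitrile-quenched timepoints analysed by LC/MS/MS for half-life or percent remaining.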

The mark [5] stands for this setting: CSF and plasma, read-out: CSF/Plasma (%).
Setting [6] is: brain and plasma, 1 g brain assumed 1 mL, read-out: Brain/Plasma (%).

pEC50: −log10 of the molar value. Where two headings read alike, the source gives them in different places.

Take `CC(C)(C)/[N+]([O-])=C/c1ccc(S(N)(=O)=O)cc1` [Compound 20, N-(tert-Butyl)-C-[4-(sulfamoyl)phenyl]nitrone]: the pEC50 in data set [1] was less than 3.00. Besides, the fraction unbound at 1 μg/mL in data set [2] was 1. In addition, the Kp came to 0.144 in data set [3] (setting [5]) and 0.229 in data set [3] (setting [6]).
Consider `CC(C)(C)/[N+]([O-])=C/c1ccc(S(=O)(=O)N2CCOCC2)cc1` [Compound 23, N-(tert-Butyl)-C-[4-(morpholine-4-sulfonyl)phenyl]nitrone], for which, in data set [1], the pEC50 was less than 3.00. Also, in data set [2], the fraction unbound at 1 μg/mL was 0.8.
Take `CC(C)(C)/[N+]([O-])=C/c1ccc(S(=O)(=O)Nc2cccnc2)cc1` [Compound 26, N-(tert-Butyl)-C-[4-(pyridin-3-ylsulfamoyl)phenyl]nitrone]: the pEC50 in data set [1] is less than 3.00. Besides, in data set [2], the fraction unbound at 1 μg/mL was 0.238. Also, the Kp in data set [3] (setting [5]) came out at 0.0012; in data set [3] (setting [6]) it was 0.0056.
For `CC(C)(C)/[N+]([O-])=C/c1ccc(S(C)(=O)=O)cc1` [Compound 62, N-tert-Butyl-C-[4-(methanesulfonyl)phenyl]nitrone], the pEC50 in data set [1] is less than 3.00. Moreover, in data set [2], the fraction unbound at 1 μg/mL is 0.826. The Kp in data set [3] (setting [5]) came out at 0.786; in data set [3] (setting [6]) it was 0.625. Further, the “% of Nitrone Remaining at 30 min (Human)” value in data set [4] stood at 100%.
The corresponding values for `CC(C)(C)/[N+]([O-])=C/c1ccc(S(C)(=O)=O)cc1S(C)(=O)=O` [Compound 63, N-tert-Butyl-C-(2,4-bis-methanesulfonylphenyl)nitrone] are 3.00 to 3.30, 0.867, 0.336, 0.189 and 99%.
On to `CCS(=O)(=O)c1ccc(/C=[N+](\[O-])C(C)(C)C)c(S(=O)(=O)CC)c1` [Compound 64, N-tert-Butyl-C-(2,4-bis-ethanesulfonylphenyl)nitrone], for which the pEC50 in data set [1] was 3.00 to 3.30. Besides, in data set [2], the fraction unbound at 1 μg/mL was 0.697. Also, in data set [4], the “% of Nitrone Remaining at 30 min (Human)” value stood at 100%.
As for `CC(C)(C)/[N+]([O-])=C/c1ccccc1S(C)(=O)=O` [Compound 66, N-tert-Butyl-C-(2-methanesulfonylphenyl)nitrone], the pEC50 in data set [1] is 3.00 to 3.30. In addition, in data set [2], the fraction unbound at 1 μg/mL was 0.726. Further, the results for the Kp in data set [3] (setting [5]) and in data set [3] (setting [6]) were 0.936 and 0.224, respectively.
